Experimental data reported in patent US6166091A, “2,3,4-trihydroxycyclopentanone” (Takara Shuzo Co., Ltd., priority 1997, dated 2000).

Experiments:
[1] = storage of aqueous cyclopentenone solution, conversion to hydroxycyclopentanone; format: physicochemical; settings: water; aqueous solution stored at 4° C. for 30 days; read-out: cyclopentenone changed to hydroxycyclopentanone in aqueous solution
[2] = standing in aqueous solution, TLC detection of cyclopentenone formed; format: physicochemical; settings: 4 mM in water, 16 hours at 4° C., 37° C. or 45° C.
Method: Hydroxycyclopentanone obtained in Example 2-(2) was dissolved in water to make the concentration 4 mM followed by allowing to stand for 16 hours at 4° C., 37° C. or 45° C. One μl of each of the samples was spotted on a silica gel 60 sheet F254 (manufactured by Merck), developed by the upper layer of a mixture of butyl acetate, acetic acid and water (3:2:2) and detected by means of an orcinol-sulfuric acid method. Thus, 400 mg of orcinol monohydrate (manufactured by Nacalai Tesque; 257-30) was dissolved in 22.8 ml of sulfuric acid, water was added to make 200 ml, the solution was sprayed on the thin layer after the development and heated at 120° C. for 1-2 minutes and the resulting spots were observed.

mice = test: toxicity by oral administration to mice; format: in vivo; settings: oral administration of 100 mg/kg to mice

degraded at 720 h [1] | SMILES | conversion to cyclopentenone in aqueous solution (TLC spot) [2] | toxicity (mice)
~30% | O=C1C=CC(O)C1O (stereo not drawn) [cyclopentenone, 4,5-dihydroxy-2-cyclopenten-1-one] |  | 
 | O=C1CC(O)C(O)C1O (stereo not drawn) [hydroxycyclopentanone, 2,3,4-trihydroxycyclopentanone] | a spot for cyclopentenone was noted in all of the samples and the higher the temperature for allowing to stand, the stronger the color of the spot for cyclopentenone | no toxicity was noted
